This note sets out measurements from patent US11834466B2, “Benzoxaborole compounds and formulations thereof” (5Metis, Inc., priority 2017, dated 2023).

What all share (assay type): in vivo
In assay [1] the test system is cucurbit/downy mildew. The assay is described as follows: Greenhouse biological efficacy on cucurbit/downy mildew. The settings on record: BAG8 0.25 lb/acre at 20 gal/acre, inoculum 24 hours post spray. As to the method:
(§1) The BAG8 SC formulations described in Example 10 (BAG8 20% SC) and Example 12 (BAG8 40% SC) and selected BAG8 SC-tank mix formulations described in Example 23 were tested under greenhouse conditions. Data was obtained for soybean/white mold (Sclerotinia sclerotiorum), wheat/SNB (Parastangaspora nodorum), and cucubit/downy mildew. For each experiment, the BAG8 was applied at a rate of 0.25 lb/acre and at a spray rate of 20 gal/acre. Various BAG8 EC formulations, the BAG8 WP formulation described in Example 18, and selected BAG8 SC-tank mix formulations described in Example 23 were tested under greenhouse conditions. Data was obtained for soybean/white mold (Sclerotinia sclerotiorum), wheat/SNB (Parastangaspora nodorum), and cucurbit/downy mildew. For each experiment, the BAG8 was applied at a rate of 0.25 lb/acre at a spray rate of 20 gal/acre (40 mL of spray solution prepared). All inoculum was applied 24 hours post BAG8 spray. Unformulated BAG8 was applied to the plants by dissolving BAG8 in a 30% acetone-70% water solution.

The test system of assay [2] is soybean/white mold (Sclerotinia sclerotiorum). The assay is described as follows: Greenhouse biological efficacy on soybean/white mold. The note with it: BAG8 0.25 lb/acre at 20 gal/acre, inoculum 24 hours post spray, Example 29, Table 19, untreated control 7.333. Here is the method:
as §1

Assay [3] deals with wheat/SNB (Parastangaspora nodorum). The assay is described as follows: Greenhouse biological efficacy on wheat/SNB. The note with it: BAG8 0.25 lb/acre at 20 gal/acre, inoculum 24 hours post spray, Example 26, Table 16, untreated control 6.750. Here is the method:
as §1

The structures appear in SMILES notation.

For `OB1OCc2cc(Cl)ccc21` [BAG8, 5-chlorobenzo[c][1,2]oxaborol-1(3H)-ol], the “Mean Disease Severity” value worked out at 5.833 in assay [1] (Cucumber/Downy Mildew, Example 29, Table 20, untreated control 7.417); 2.000 in assay [1] (Curcurbit/Downy Mildew, Example 27, Table 17, untreated control 8.364); 5.833 in assay [1] (Curcurbit/Downy Mildew, Example 28, Table 18, untreated control 6.667); 5.333 in assay [2]; 5.750 in assay [3].
